From patent publication EP0427427A2, “Use of arylalkylamides in the treatment of neurodegenerative diseases” (FISONS CORPORATION, priority 1989, dated 1991)
Like-named read-outs stand apart in the source and are kept apart here.

Assays:
[1] = test system: Rats; assay: 4-vessel occlusion model of stroke, viability of CA1 neurons in the hippocampus; type: in vivo; conditions: ip doses of 20mg/kg twice daily for one week, first injection 30 minutes after reflow, 30 minutes 4-vessel occlusion, brains at 8 days
[2] = test system: Mice; assay: Protection against NMDLA induced seizures (convulsions); type: in vivo; conditions: Mus musculus, 5 min, ip, evaluated for 5 minutes following iv injection of 150 mg/kg NMDLA
Procedure: NMDA blocking activity may be measured by assessing a compound's ability to protect mice from convulsions induced by intravenous administration of 150 m/k of NMDA according to the procedures of Czuczwar et al., (Neurotransmitters, Seizures and Epilepsy III, edited by G. Nistico et al., Raven Press, New York 1986, pages 235-246). […] […] Animals were kept for 60 min after NMDA dosing and mortality was recorded.

[3] = Inverted screen test of Coughenour et al. (TD50); conditions: mouse, in vivo, mice, oral
[4] = test system: Mice; assay: Antihypoxia studies (time to mortality in a hypoxic environment); type: in vivo; conditions: Mus musculus, oral, dose that produces a 50% increase in the time to mortality in an hypoxic environment
Procedure: Antihypoxia activity, that is, they extension of the lifetime of animals exposed to a hypoxic environment, may be conveniently measured in mice. Groups of mice are tested at various times after the intraperitoneal administration of graded doses of the test compound. The animals' survival time in a temperature controlled hypoxic environment (96% nitrogen and 4% oxygen) is recorded. A statistical comparison is made between coincident vehicle treated animals and the experimental group. […] Other modes of administration can also be used.

[5] = test system: Dogs; conditions: conscious dogs, iv incremental doses
Procedure: (§1) Dogs - Dogs are subjected to 8 minutes global ischemia (clamping the ascending aorta) and are treated iv with drug at 30 minutes after reflow. Treatment is given 6 hours later, b.i.d. for 2 more days and s.i.d. for 4 additional days. On day 8 the brains are removed and again drug protection of the vulnerable CA1 neurons is assessed. The Toxic doses are determined by administering the drug iv to conscious dogs in incremental doses and observing for side effects (we use preictal behaviour or convulsions as an endpoint).

[6] = CD50: seizure following ip injection of the compound; conditions: mouse, in vivo, mice, no inverted screen TD50 performed, CD50 = dose when 50% of mice experience a seizure following ip injection
[7] = test system: Mice; assay: Protection against NMDLA induced mortality; type: in vivo; conditions: Mus musculus, 1 h, ip, evaluated over 60 minutes after NMDLA injection (150 mg/kg iv)
Procedure: NMDA blocking activity may be measured by assessing a compound's ability to protect mice from convulsions induced by intravenous administration of 150 m/k of NMDA according to the procedures of Czuczwar et al., (Neurotransmitters, Seizures and Epilepsy III, edited by G. Nistico et al., Raven Press, New York 1986, pages 235-246). Groups of mice were pretreated by 30 min with the test compound by the oral or intraperitoneal routes and then given NMDA. […] Animals were kept for 60 min after NMDA dosing and mortality was recorded.

[8] = test system: Rats; assay: Neurotoxicity TD50, narrow plank walking test; conditions: narrow plank test one hour after administration
Procedure: Rats - Rats are subjected to the 4-vessel occlusion model of stroke for 30 minutes followed by drug injection at 30 minutes after blood reflow to the brain. The drugs are administered ip twice daily for one week. At 8 days post stroke the brains are removed and protection is determined by determining viability of the vulnerable CA1 neurons in the hippocampus (neutrons associated with short term memory). […] Rats that fall are scored as failures.

[9] = test system: Dogs; conditions: iv
Procedure: as §1

[10] = test system: Dogs; assay: Global ischemia (clamping the ascending aorta), protection of CA1 neurons; conditions: iv, 8 minutes global ischemia, treatment from 30 minutes after reflow, CA1 neurons on day 8
Procedure: as §1

SMILES	preventing loss of the CA1 neurons [1]	ED50 [2] [mg/kg]	TD50 [3] [mg/kg]	ED50 [4] [mg/kg]	lowest toxic dose for convulsions [5] [mg/kg]	lowest toxic dose for preictal behaviour [5] [mg/kg]	TD50 [6] [mg/kg]	ED50 [7] [mg/kg]	ip doses for TD50s relative to neurotoxicity in the rat [8]	dose active in protecting dogs against stroke [9] [mg/kg]	dose active in protecting dogs against stroke [10] [mg/kg]
NCC(=O)NC(Cc1ccccc1)c1ccccc1 (stereo not drawn) [Compound B, 2-amino-N-(1,2-diphenylethyl)acetamide]	effective	33	236	19.1	44	44	82.4	20.6	47	5	–
CC(Cc1ccccc1)(NC(=O)CN)c1ccccc1 (stereo not drawn) [Compound A, 2-amino-N-(1,2-diphenyl-1-methylethyl)acetamide]	effective	–	–	–	–	–	–	–	–	–	7.5
